Results reported in patent US20150353495A1 (PORTOLA PHARMACEUTICALS, INC., priority 2010, published 2015).

Legend:
JAK1 = molecular target: T1, JAK1 (Homo sapiens, UniProt P23458); assay: Z'-LYTE kinase assay JAK1; format: biochemical
T1 construct: 5 μl of catalytic domain recombinant Kinase enzyme+Tyr peptide substrate (Invitrogen, CA); purchased Invitrogen
Method in brief: (§1)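 In duplicate wells, each test molecule (1% final DMSO) is incubated with recombinant kinase catalytic domain, Tyr6 peptide substrate and ATP for one hour at room temperature; a site-specific protease is then added for another hour before fluorescence reading.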

TYK2 = molecular target: T2, TYK2 (Homo sapiens, UniProt P29597); assay: Z'-LYTE kinase assay TYK2; format: biochemical
T2 construct: 5 μl of catalytic domain recombinant Kinase enzyme+Tyr peptide substrate (Invitrogen, CA); purchased Invitrogen
T2 sequence (P29597 897-1176 limits assumed): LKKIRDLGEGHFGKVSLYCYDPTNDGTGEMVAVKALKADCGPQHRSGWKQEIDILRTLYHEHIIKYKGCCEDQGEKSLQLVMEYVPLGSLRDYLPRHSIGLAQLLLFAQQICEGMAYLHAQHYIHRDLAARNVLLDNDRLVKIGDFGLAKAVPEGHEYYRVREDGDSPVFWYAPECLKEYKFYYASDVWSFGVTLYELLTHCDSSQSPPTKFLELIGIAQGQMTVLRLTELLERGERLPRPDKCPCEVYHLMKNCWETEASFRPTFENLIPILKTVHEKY
Method in brief: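 IC50 derived by 4-parameter logistic fit of percent substrate phosphorylation relative to uninhibited wells. Tyr6 peptide phosphorylated by recombinant TYK2 catalytic domain for 1 h at room temperature (1% DMSO), cleaved by development protease 1 h, FRET emission ratio 445/520 nm.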

[1] = test system: JAK1/3 signaling to STAT6 in Ramos B cells; assay: IL4 stimulation of JAK1/3 signaling to STAT6 in Ramos B cells (pSTAT6 Y641, FACS); format: cell-based; conditions: Homo sapiens; for inhibition at 0.2 µM: 0.2 uM compound, read-out: IL-4/STAT6 in Ramos Percent Inhibition at 0.2 uM; for inhibition at 1 µM: 1.0 uM compound, read-out: IL-4/STAT6 in Ramos Percent Inhibition at 1.0 uM
Method in brief: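 Phospho-STAT6 Y641 was measured by FACS using a PE-labelled antibody after fixation (2% paraformaldehyde) and methanol permeabilization. Before this, Ramos cells were exposed to compound for 1 h, then to 15 ng IL4 for 15 min.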

JAK2 = molecular target: T3, JAK2 (Homo sapiens, UniProt O60674); assay: Z'-LYTE kinase assay JAK2; format: biochemical
T3 construct: 5 μl of catalytic domain recombinant Kinase enzyme+Tyr peptide substrate (Invitrogen, CA); purchased Invitrogen
Method in brief: as §1

JAK3 = molecular target: T4, JAK3 (Homo sapiens, UniProt P52333); assay: Z'-LYTE kinase assay JAK3; format: biochemical
T4 construct: 5 μl of catalytic domain recombinant Kinase enzyme+Tyr peptide substrate (Invitrogen, CA); purchased Invitrogen
Method in brief: as §1

T1 sequence (P23458 875-1153 limits assumed): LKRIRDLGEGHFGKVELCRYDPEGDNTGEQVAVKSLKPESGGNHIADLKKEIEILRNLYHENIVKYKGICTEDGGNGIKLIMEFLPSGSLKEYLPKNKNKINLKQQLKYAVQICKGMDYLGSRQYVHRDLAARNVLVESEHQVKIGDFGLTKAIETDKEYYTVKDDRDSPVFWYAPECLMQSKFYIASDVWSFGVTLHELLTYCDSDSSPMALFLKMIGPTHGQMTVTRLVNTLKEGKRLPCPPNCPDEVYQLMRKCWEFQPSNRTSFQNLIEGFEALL
T3 sequence (O60674 849-1124 limits assumed): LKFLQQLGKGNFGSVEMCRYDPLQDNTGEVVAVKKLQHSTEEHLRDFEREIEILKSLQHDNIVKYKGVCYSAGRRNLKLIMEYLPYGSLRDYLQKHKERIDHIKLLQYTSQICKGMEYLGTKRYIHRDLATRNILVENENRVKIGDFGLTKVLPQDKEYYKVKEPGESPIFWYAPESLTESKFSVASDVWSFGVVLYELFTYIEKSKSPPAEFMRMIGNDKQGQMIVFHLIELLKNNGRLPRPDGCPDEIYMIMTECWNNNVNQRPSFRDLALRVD
T4 sequence (P52333 822-1111 limits assumed): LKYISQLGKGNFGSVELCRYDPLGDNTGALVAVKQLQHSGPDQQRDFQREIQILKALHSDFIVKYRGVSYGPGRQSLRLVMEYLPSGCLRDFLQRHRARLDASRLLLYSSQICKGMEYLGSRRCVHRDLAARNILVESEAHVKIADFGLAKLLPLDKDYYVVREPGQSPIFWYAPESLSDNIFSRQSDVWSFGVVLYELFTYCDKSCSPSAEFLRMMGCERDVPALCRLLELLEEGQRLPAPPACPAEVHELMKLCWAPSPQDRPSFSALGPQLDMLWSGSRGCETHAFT

| IC50 (JAK1) | IC50 (TYK2) | IC50 (JAK2) | IC50 (JAK3) | SMILES | inhibition at 0.2 µM [1] | inhibition at 1 µM [1] |
| --- | --- | --- | --- | --- | --- | --- |
| 100 to 1000 nM | 100 to 1000 nM | 10 to 100 nM | 1 to 10 nM | COCC(=O)N1CCC(c2ccc(Nc3cc(NCc4ccccc4F)c(C(N)=O)cn3)cc2)CC1 [Example 116, 4-(2-fluorobenzylamino)-6-(4-(1-(2-methoxyacetyl)piperidin-4-yl)phenylamino)nicotinamide] | 25% | 43% |
| 100 to 1000 nM | 100 to 1000 nM | 100 to 1000 nM | 1 to 10 nM | CC(=O)N1CCN(c2ccc(Nc3cc(NCc4cccnc4)c(C(N)=O)cn3)cc2)CC1 [Example 233] | 17% | 33% |
| 100 to 1000 nM | 100 to 1000 nM | 100 to 1000 nM | 1 to 10 nM | N#CCC(=O)N1CCC(c2ccc(Nc3cc(NCc4ccccc4F)c(C(N)=O)cn3)cc2)CC1 [Example 117, 6-(4-(1-(2-cyanoacetyl)piperidin-4-yl)phenylamino)-4-(2-fluorobenzylamino)nicotinamide] | 43% | 67% |
| 100 to 1000 nM | > 1000 nM | 100 to 1000 nM | 10 to 100 nM | CNC(=O)c1cccc(Nc2cc(NCc3ccccc3)c(C(N)=O)cn2)c1 [Example 246, 4-(benzylamino)-6-(3-(methylcarbamoyl)phenylamino)nicotinamide] | 6% | 11% |
| 100 to 1000 nM | 100 to 1000 nM | 100 to 1000 nM | 1 to 10 nM | NC(=O)c1cnc(Nc2cccc(OCC(=O)N3CCOCC3)c2)cc1NCc1ccccc1 [Example 430, 4-(benzylamino)-6-(3-(2-morpholino-2-oxoethoxy)phenylamino)nicotinamide] | 15% | 36% |
| 100 to 1000 nM | 100 to 1000 nM | 100 to 1000 nM | 1 to 10 nM | NC(=O)c1cnc(Nc2ccc(C3CCNCC3)cc2)cc1NCc1ccccc1F [Example 106, 4-(2-fluorobenzylamino)-6-(4-(piperidin-4-yl)phenylamino)nicotinamide] | 28% | 49% |
| 100 to 1000 nM | > 1000 nM | 100 to 1000 nM | 10 to 100 nM | COCCOc1cccc(Nc2cc(NCc3ccccc3)c(C(N)=O)cn2)c1 [Example 433, -(benzylamino)-6-(3-(2-methoxyethoxyl)phenylamino)nicotinamide] | 18% | 27% |
| > 1000 nM | > 1000 nM | 100 to 1000 nM | 10 to 100 nM | NC(=O)c1cnc(Nc2ccc(OCCN3CCCCC3)cc2)cc1NCc1ccccc1 [Example 81, 4-(benzylamino)-6-(4-(2-(piperidin-1-yl)ethoxy)phenylamino)nicotinamide] | 29% | 48% |
| > 1000 nM | > 1000 nM | 100 to 1000 nM | 10 to 100 nM | NC(=O)c1cnc(Nc2ccc(N3CCOCC3)c(Cl)c2)cc1NCc1ccccc1 [Example 251, 4-(benzylamino)-6-(3-chloro-4-morpholinophenylamino)nicotinamide] | 17% | 51% |
| 100 to 1000 nM | 100 to 1000 nM | 100 to 1000 nM | 10 to 100 nM | CN(C)C(=O)c1cccc(Nc2cc(NCc3ccccc3)c(C(N)=O)cn2)c1 [Example 247, 4-(benzylamino)-6-(3-(dimethylcarbamoyl)phenylamino)nicotinamide] | 6% | 24% |
| > 1000 nM | 100 to 1000 nM | 100 to 1000 nM | 10 to 100 nM | CC(=O)N1CCN(c2ccc(Nc3cc(N[C@H]4CCc5ccccc54)c(C(N)=O)cn3)cc2)CC1 [Example 255, (S)-6-(4-(4-acetylpiperazin-1-yl)phenylamino)-4-(2,3-dihydro-1H-inden-1-ylamino)nicotinamide] | 11% | 18% |
| > 1000 nM | > 1000 nM | 100 to 1000 nM | 1 to 10 nM | NC(=O)c1cnc(Nc2ccc(CN3CCOCC3)cc2)cc1NCc1ccccc1 [Example 431, 4-(benzylamino)-6-(4-(morpholinomethyl)phenylamino)nicotinamide] | 7% | 24% |

Continued, compound first:

| SMILES | IC50 (JAK1) | IC50 (TYK2) | IC50 (JAK2) | IC50 (JAK3) | inhibition at 0.2 µM [1] | inhibition at 1 µM [1] |
| --- | --- | --- | --- | --- | --- | --- |
| NC(=O)c1cnc(Nc2ccc(N3CCCCC3=O)cc2)cc1NCc1ccccc1F [Example 71, 4-(2-fluorobenzylamino)-6-(4-(2-oxopiperidin-1-yl)phenylamino)nicotinamide] | 100 to 1000 nM | 100 to 1000 nM | 100 to 1000 nM | 1 to 10 nM | 22% | 37% |
| NC(=O)c1cnc(Nc2cccc(OCCN3CCCC3)c2)cc1NCc1cccc(F)c1 [Example 58, 4-(3-fluorobenzylamino)-6-(3-(2-(pyrrolidin-1-yl)ethoxy)phenylamino)nicotinamide] | 100 to 1000 nM | > 1000 nM | 10 to 100 nM | 1 to 10 nM | 33% | 60% |
| COc1cc(Nc2cc(NCc3cccc(F)c3)c(C(N)=O)cn2)ccc1N1CCCC1=O [Example 63, 4-(3-fluorobenzylamino)-6-(3-methoxy-4-(2-oxopyrrolidin-1-yl)phenylamino)nicotinamide] | 100 to 1000 nM | > 1000 nM | 100 to 1000 nM | 1 to 10 nM | 32% | 46% |
| NC(=O)c1cnc(Nc2ccc(N3CCCCC3)cc2)cc1N[C@H](CO)c1ccccc1 [Example 75, (S)-4-(2-hydroxy-1-phenylethylamino)-6-(4-(piperidin-1-yl)phenylamino)nicotinamide] | > 1000 nM | > 1000 nM | > 1000 nM | 10 to 100 nM | 11% | 26% |
| COc1cccc(Nc2cc(NCc3ccccc3)c(C(N)=O)cn2)c1 [Example 11, 4-(benzylamino)-6-(3-methoxyphenylamino)nicotinamide] | > 1000 nM | > 1000 nM | > 1000 nM | 10 to 100 nM | 11% | 15% |
| CC(=O)N1CCN(c2ccc(Nc3cc(NCc4ccccc4)c(C(N)=O)cn3)cc2C)CC1 [Example 5, 6-(4-(4-acetylpiperazin-1-yl)-3-methylphenylamino)-4-(benzylamino)nicotinamide] | 100 to 1000 nM | 100 to 1000 nM | 100 to 1000 nM | 1 to 10 nM | 37% | 61% |
| NC(=O)c1cnc(Nc2ccc(C(=O)N3CCC3)cc2)cc1NCc1ccccc1 [Example 46, 6-(4-(azetidine-1-carbonyl)phenylamino)-4-(benzylamino)nicotinamide] | 100 to 1000 nM | 100 to 1000 nM | 100 to 1000 nM | 1 to 10 nM | 54% | 80% |
| NC(=O)c1cnc(Nc2cccc(OCCN3CCCC3)c2)cc1NCc1cccnc1 [Example 60, 4-(pyridin-3-ylmethylamino)-6-(3-(2-(pyrrolidin-1-yl)ethoxy)phenylamino)nicotinamide] | 100 to 1000 nM | > 1000 nM | 100 to 1000 nM | 1 to 10 nM | 22% | 40% |
| Cc1ccc(Nc2cc(NCc3ccccc3)c(C(N)=O)cn2)cc1 [Example 10, 4-(benzylamino)-6-(p-tolylamino)nicotinamide] | > 1000 nM | > 1000 nM | > 1000 nM | 100 to 1000 nM | 6% | 20% |
| NC(=O)c1cnc(Nc2ccc(N3CCCCC3=O)cc2)cc1NCc1cccc(F)c1 [Example 64, 4-(3-fluorobenzylamino)-6-(4-(2-oxopiperidin-1-yl)phenylamino)nicotinamide] | 100 to 1000 nM | 100 to 1000 nM | 10 to 100 nM | 1 to 10 nM | 32% | 50% |
| NC(=O)c1cnc(Nc2cccc(OCCN3CCCC3)c2)cc1NCc1ccccc1F [Example 72, 4-(2-fluorobenzylamino)-6-(3-(2-(pyrrolidin-1-yl)ethoxy)phenylamino)nicotinamide] | 100 to 1000 nM | 100 to 1000 nM | 100 to 1000 nM | 1 to 10 nM | 27% | 54% |
| COc1ccc(Nc2cc(NCc3ccccc3)c(C(N)=O)cn2)cc1 [Example 12, 4-(benzylamino)-6-(4-methoxyphenylamino)nicotinamide] | > 1000 nM | > 1000 nM | 100 to 1000 nM | 10 to 100 nM | 15% | 11% |
